Data as given in patent US10106559B2, “Substituted tetrahydrocarbazole and carbazole carboxamide compounds” (BRISTOL-MYERS SQUIBB COMPANY, priority 2013, dated 2018).

System: CD69 expression on B cells in human whole blood
Assay: Whole Blood Assay of BCR-Stimulated CD69 Expression on B Cells
Assay type: cell-based
Settings: B-cell

Row | SMILES | IC50 [µM]
1 | Cn1c(=O)n(-c2cccc(-c3c(F)cc(C(N)=O)c4[nH]c5cc(C(C)(C)O)ccc5c34)c2Cl)c(=O)c2cccc(F)c21 [Example 46, 4-(2-Chloro-3-(8-fluoro-1-methyl-2,4-dioxo-1,2-dihydroquinazolin-3(4H)-yl)phenyl)-3-fluoro-7-(2-hydroxypropan-2-yl)-9H-carbazole-1-carboxamide] | 0.088
2 | COc1cccc2c(=O)n(-c3cccc(-c4c(Cl)cc(C(N)=O)c5[nH]c6cc(C(C)(C)O)ccc6c45)c3C)c(=O)n(C)c12 [Example 7, 3-Chloro-7-(2-hydroxypropan-2-yl)-4-(R)-(3-(8-methoxy-1-methyl-2,4-dioxo-1,2-dihydroquinazolin-3(4H)-yl)-2-methylphenyl)-9H-carbazole-1-carboxamide] | 0.13
3 | [2H]C([2H])([2H])n1c(=O)n(-c2cccc(-c3c(F)cc(C(N)=O)c4[nH]c5c(c34)CC[C@H](C(C)(C)O)C5)c2C)c(=O)c2cccc(F)c21 (single isomer, unassigned) [Example 62] | 0.074
4 | Cc1c(-c2c(F)cc(C(N)=O)c3[nH]c4c(c23)CC[C@H](C(C)(C)O)C4)cccc1-n1c(=O)[nH]c2c(F)cccc2c1=O (single isomer, unassigned) [Example 59] | 0.26
5 | Cc1c(-c2c(Cl)cc(C(N)=O)c3[nH]c4cc(C(C)(C)O)ccc4c23)cccc1-n1c(=O)[nH]c2c(F)cc(F)cc2c1=O (racemic) [Example 10, 3-Chloro-4-(RS)-(3-(RS)-(6,8-difluoro-2,4-dioxo-1,2-dihydroquinazolin-3(4H)-yl)-2-methylphenyl)-7-(2-hydroxypropan-2-yl)-9H-carbazole-1-carboxamide] | 0.11
6 | Cc1c(-c2c(Cl)cc(C(N)=O)c3[nH]c4c(c23)CC[C@H](C(C)(C)O)C4)cccc1-n1c(=O)c2cccc(F)c2n(C)c1=O [Example 25, 6-Chloro-5-(3-(8-fluoro-1-methyl-2,4-dioxo-1,2-dihydroquinazolin-3(4H)-yl)-2-methylphenyl)-2-(S)-(2-hydroxypropan-2-yl)-2,3,4,9-tetrahydro-1H-carbazole-8-carboxamide] | 0.2
7 | Cc1c(-c2c(F)cc(C(N)=O)c3[nH]c4c(c23)CC[C@H](C(C)(C)O)C4)cccc1-n1c(=O)[nH]c2c(Cl)cccc2c1=O (single isomer, unassigned) [Example 63] | 0.19
8 | [2H]C([2H])([2H])n1c(=O)n(-c2cccc(-c3c(F)cc(C(N)=O)c4[nH]c5cc(C(C)(C)O)ccc5c34)c2C)c(=O)c2cccc(F)c21 (single isomer, unassigned) [Example 52] | 0.025
9 | Cc1c(-c2c(F)cc(C(N)=O)c3[nH]c4cc(C(C)(C)O)ccc4c23)cccc1-n1c(=O)c2cccc(F)c2n(C)c1=O (single isomer, unassigned) [Example 74] | 0.18
10 | Cc1c(-c2c(Cl)cc(C(N)=O)c3[nH]c4cc(C(C)(C)O)ccc4c23)cccc1-n1c(=O)c2cc(F)ccc2n(C)c1=O [Example 8, 3-Chloro-4-(R)-(3-(6-fluoro-1-methyl-2,4-dioxo-1,2-dihydroquinazolin-3(4H)-yl)-2-methylphenyl)-7-(2-hydroxypropan-2-yl)-9H-carbazole-1-carboxamide] | 0.075
11 | Cc1c(-c2c(F)cc(C(N)=O)c3[nH]c4c(c23)CC[C@H](C(C)(C)O)C4)cccc1-n1c(=O)cc2c(Cl)cccn2c1=O (single isomer, unassigned) [Example 64] | 0.088
12 | Cc1c(-c2c(F)cc(C(N)=O)c3[nH]c4cc(CCO)ccc4c23)cccc1-n1c(=O)cc2c(F)cccn2c1=O [Example 70] | 0.066
13 | Cc1c(-c2c(Cl)cc(C(N)=O)c3[nH]c4cc(C(C)(C)O)ccc4c23)cccc1-n1c(=O)c2ccccc2n(C)c1=O [Example 3, 3-Chloro-7-(2-hydroxypropan-2-yl)-4-(R)-(2-methyl-3-(1-methyl-2,4-dioxo-1,2-dihydroquinazolin-3(4H)-yl)phenyl)-9H-carbazole-1-carboxamide] | 0.13
14 | Cc1c(-c2c(Cl)cc(C(N)=O)c3[nH]c4cc(C(C)(C)O)ccc4c23)cccc1-n1c(=O)c2cccc(C)c2n(C)c1=O [Example 4, 3-Chloro-4-(R)-(3-(1,8-dimethyl-2,4-dioxo-1,2-dihydroquinazolin-3(4H)-yl)-2-methylphenyl)-7-(2-hydroxypropan-2-yl)-9H-carbazole-1-carboxamide] | 0.18
15 | CC(C)(O)c1ccc2c(c1)[nH]c1c(C(N)=O)cc(Cl)c(-c3cccc(-n4c(=O)[nH]c5c(F)cccc5c4=O)c3Cl)c12 [Example 47, 3-Chloro-4-(R)-(2-chloro-3-(8-fluoro-2,4-dioxo-1,2-dihydroquinazolin-3(4H)-yl)phenyl)-7-(2-hydroxypropan-2-yl)-9H-carbazole-1-carboxamide] | 0.027
16 | Cc1c(-c2c(Cl)cc(C(N)=O)c3[nH]c4cc(C(C)(C)O)ccc4c23)cccc1-n1c(=O)c2ccc(F)cc2n(C)c1=O [Example 9, 3-Chloro-4-(R)-(3-(7-fluoro-1-methyl-2,4-dioxo-1,2-dihydroquinazolin-3(4H)-yl)-2-methylphenyl)-7-(2-hydroxypropan-2-yl)-9H-carbazole-1-carboxamide] | 0.076

Target: Jak2 tyrosine kinase (Homo sapiens (Human), UniProt O60674)
Sequence (O60674 whole entry): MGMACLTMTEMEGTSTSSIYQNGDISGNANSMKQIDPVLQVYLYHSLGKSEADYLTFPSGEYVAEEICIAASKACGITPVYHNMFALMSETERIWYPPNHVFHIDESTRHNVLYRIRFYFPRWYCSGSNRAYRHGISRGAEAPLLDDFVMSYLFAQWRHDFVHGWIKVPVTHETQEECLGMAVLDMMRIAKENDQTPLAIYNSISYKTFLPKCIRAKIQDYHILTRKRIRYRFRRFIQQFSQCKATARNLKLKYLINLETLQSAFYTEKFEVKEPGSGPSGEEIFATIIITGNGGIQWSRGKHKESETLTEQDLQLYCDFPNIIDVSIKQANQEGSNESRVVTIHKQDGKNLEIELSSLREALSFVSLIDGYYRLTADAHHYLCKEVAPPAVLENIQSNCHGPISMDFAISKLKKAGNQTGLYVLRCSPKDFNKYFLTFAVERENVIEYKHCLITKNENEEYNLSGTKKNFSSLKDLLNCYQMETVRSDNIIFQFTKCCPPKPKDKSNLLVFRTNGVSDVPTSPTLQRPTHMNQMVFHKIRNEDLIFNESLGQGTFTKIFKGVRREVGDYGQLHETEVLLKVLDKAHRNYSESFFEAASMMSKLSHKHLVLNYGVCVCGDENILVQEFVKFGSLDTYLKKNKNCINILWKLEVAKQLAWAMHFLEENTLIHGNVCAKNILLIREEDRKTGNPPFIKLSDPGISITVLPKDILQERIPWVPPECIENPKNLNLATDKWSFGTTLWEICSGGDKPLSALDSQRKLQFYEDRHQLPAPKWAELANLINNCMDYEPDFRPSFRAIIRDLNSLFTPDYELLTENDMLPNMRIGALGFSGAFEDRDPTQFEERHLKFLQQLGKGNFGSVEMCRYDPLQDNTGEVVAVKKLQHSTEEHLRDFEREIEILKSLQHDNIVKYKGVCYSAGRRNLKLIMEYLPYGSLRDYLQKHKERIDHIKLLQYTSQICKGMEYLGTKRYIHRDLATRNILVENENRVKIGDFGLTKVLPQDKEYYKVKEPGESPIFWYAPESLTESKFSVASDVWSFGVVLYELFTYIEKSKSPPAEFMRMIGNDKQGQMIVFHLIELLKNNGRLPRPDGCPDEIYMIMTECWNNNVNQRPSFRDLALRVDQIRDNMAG
Assay: Jak2 Tyrosine Kinase Assay
Assay type: biochemical
Settings: not given

Row | SMILES | IC50 [µM]
17 | Cc1c(-c2c(F)cc(C(N)=O)c3[nH]c4cc(C(C)(C)O)ccc4c23)cccc1-n1c(=O)c2cccc(F)c2n(C)c1=O (single isomer, unassigned) [Example 74] | 4.3
18 | Cc1c(-c2c(F)cc(C(N)=O)c3[nH]c4cc(C(C)(C)O)ccc4c23)cccc1-n1c(=O)[nH]c2c(F)cc(F)cc2c1=O (single isomer, unassigned) [Example 73] | 0.58

Same assay, conditions: Jak2 IC50 over Btk IC50; larger value = more selective for Btk

Row | SMILES | Ratio of Jak2/Btk IC50 values
19 | Cc1nc(C(N)=O)c2[nH]c3cc(C(C)(C)O)ccc3c2c1-c1cccc(-n2cnc3ccccc3c2=O)c1C [Comparative Example 76, 7-(2-Hydroxypropan-2-yl)-3-methyl-4-(2-methyl-3-(4-oxoquinazolin-3(4H)-yl)phenyl)-9H-pyrido[3,4-b]indole-1-carboxamide, reference compound] | 29

Same assay, conditions: selectivity: Jak2 IC50 divided by Btk IC50

Row | SMILES | Ratio of Jak2/Btk IC50 values
20 | Cc1c(-c2c(Cl)cc(C(N)=O)c3[nH]c4cc(C(C)(C)O)ccc4c23)cccc1-n1c(=O)cc2c(F)cccn2c1=O [Example 35, 3-Chloro-4-(R)-(3-(5-fluoro-1,3-dioxo-1H-pyrido[1,2-c]pyrimidin-2(3H)-yl)-2-methylphenyl)-7-(2-hydroxypropan-2-yl)-9H-carbazole-1-carboxamide] | 3200
21 | Cc1c(-c2c(F)cc(C(N)=O)c3[nH]c4cc(C(C)(C)O)ccc4c23)cccc1-n1c(=O)cc2c(F)cccn2c1=O [Example 40, 3-Fluoro-4-(R)-(3-(5-fluoro-1,3-dioxo-1H-pyrido[1,2-c]pyrimidin-2(3H)-yl)-2-methylphenyl)-7-(2-hydroxypropan-2-yl)-9H-carbazole-1-carboxamide] | 1800
22 | Cc1c(-c2c(Cl)cc(C(N)=O)c3[nH]c4cc(C(C)(C)O)ccc4c23)cccc1-n1c(=O)cc2c(F)cccn2c1=O [Example 34, 3-Chloro-4-(3-(5-fluoro-1,3-dioxo-1H-pyrido[1,2-c]pyrimidin-2(3H)-yl)-2-methylphenyl)-7-(2-hydroxypropan-2-yl)-9H-carbazole-1-carboxamide] | 440
23 | [2H]C([2H])([2H])n1c(=O)n(-c2cccc(-c3c(F)cc(C(N)=O)c4[nH]c5c(c34)CC[C@H](C(C)(C)O)C5)c2C)c(=O)c2cccc(F)c21 (single isomer, unassigned) [Example 62] | >4900
24 | Cc1nc(C(N)=O)c2[nH]c3cc(C(C)(C)O)ccc3c2c1-c1cccc(-n2cnc3ccccc3c2=O)c1C [Comparative Example 76, 7-(2-Hydroxypropan-2-yl)-3-methyl-4-(2-methyl-3-(4-oxoquinazolin-3(4H)-yl)phenyl)-9H-pyrido[3,4-b]indole-1-carboxamide, reference compound] | 29
25 | Cc1c(-c2c(Cl)cc(C(N)=O)c3[nH]c4cc(C(C)(C)O)ccc4c23)cccc1-n1c(=O)cc2sccn2c1=O [Example 39, 3-Chloro-4-(R)-(3-(5,7-dioxo-5H-thiazolo[3,2-c]pyrimidin-6(7H)-yl)-2-methylphenyl)-7-(2-hydroxypropan-2-yl)-9H-carbazole-1-carboxamide] | 1200
26 | Cc1c(-c2c(F)cc(C(N)=O)c3[nH]c4c(c23)CC[C@H](C(C)(C)O)C4)cccc1-n1c(=O)[nH]c2c(Cl)cccc2c1=O (single isomer, unassigned) [Example 63] | 24000
27 | COc1ccc2c(=O)n(-c3cccc(-c4c(Cl)cc(C(N)=O)c5[nH]c6cc(C(C)(C)O)ccc6c45)c3C)c(=O)n(C)c2c1 (single isomer, unassigned) [Example 6] | 1400
28 | COc1ccc2c(=O)n(-c3cccc(-c4c(Cl)cc(C(N)=O)c5[nH]c6cc(C(C)(C)O)ccc6c45)c3C)c(=O)n(C)c2c1 (single isomer, unassigned) [Example 5] | >950
29 | Cc1c(-c2c(Cl)cc(C(N)=O)c3[nH]c4cc(C(C)(C)O)ccc4c23)cccc1-n1c(=O)cc2sccn2c1=O [Example 38, 3-Chloro-4-(R)-(3-(5,7-dioxo-5H-thiazolo[3,2-c]pyrimidin-6(7H)-yl)-2-methylphenyl)-7-(2-hydroxypropan-2-yl)-9H-carbazole-1-carboxamide] | 880
30 | Cc1c(-c2c(F)cc(C(N)=O)c3[nH]c4c(c23)CC[C@H](C(C)(C)O)C4)cccc1-n1c(=O)c2cccc(F)c2n(C)c1=O (atropisomer, axis not shown) [Example 28, 6-Fluoro-5-(R)-(3-(S)-(8-fluoro-1-methyl-2,4-dioxo-1,2-dihydroquinazolin-3(4H)-yl)-2-methylphenyl)-2-(S)-(2-hydroxypropan-2-yl)-2,3,4,9-tetrahydro-1H-carbazole-8-carboxamide] | 59000
31 | Cc1c(-c2c(F)cc(C(N)=O)c3[nH]c4cc(C(C)(C)O)ccc4c23)cccc1-n1c(=O)cc2c(F)cccn2c1=O [Example 41, 3-Fluoro-4-(R)-(3-(5-fluoro-1,3-dioxo-1H-pyrido[1,2-c]pyrimidin-2(3H)-yl)-2-methylphenyl)-7-(2-hydroxypropan-2-yl)-9H-carbazole-1-carboxamide] | 4000
32 | Cc1c(-c2c(F)cc(C(N)=O)c3[nH]c4cc(CCO)ccc4c23)cccc1-n1c(=O)cc2c(F)cccn2c1=O [Example 70] | 930
33 | Cc1c(-c2c(F)cc(C(N)=O)c3[nH]c4c(c23)CC[C@H](C(C)(C)O)C4)cccc1-n1c(=O)cc2c(F)cccn2c1=O (single isomer, unassigned) [Example 69] | 11000
34 | Cc1c(-c2c(Cl)cc(C(N)=O)c3[nH]c4cc(C(C)(C)O)ccc4c23)cccc1-n1c(=O)cc2c(F)cccn2c1=O [Example 36, 3-Chloro-4-(R)-(3-(5-fluoro-1,3-dioxo-1H-pyrido[1,2-c]pyrimidin-2(3H)-yl)-2-methylphenyl)-7-(2-hydroxypropan-2-yl)-9H-carbazole-1-carboxamide] | 1600
35 | Cc1c(-c2c(C#N)cc(C(N)=O)c3[nH]c4cc(C(C)(C)O)ccc4c23)cccc1-n1c(=O)c2cccc(F)c2n(C)c1=O [Example 15, 3-Cyano-4-(S)-(3-(8-fluoro-1-methyl-2,4-dioxo-1,2-dihydroquinazolin-3(4H)-yl)-2-methylphenyl)-7-(2-hydroxypropan-2-yl)-9H-carbazole-1-carboxamide] | 2400
